We go through two molecules from patent US9283242B2, “Uses of dihydro bases” (priority 2013, dated 2016).

Entries after “also recorded” stand apart in the source; their conditions may differ.

For data set [1], the system named is HK81 (AlkB+) E. coli cells. The class given is cell-based. The conditions noted are these: HK81; percentage relative to unmodified control genome. As for the experimental part: (A) A 16mer oligonucleotide containing KP1212 (SEQ ID NO: 1) (or controls) at a specific site was chemically synthesized and ligated into the genome of an M13 bacteriophage. (B) The KP1212-containing M13 genomes were replicated within E. coli cells. Progeny were analyzed to characterize the amount and the type of nucleic acid base placed opposite the lesion during replication. The relative reduction in lesion vs. non-lesion competitor progeny formation was used as an estimate of the extent to which KP1212 and m3C inhibited DNA replication. (C) The KP1212-containing M13 genomes were used as templates for in vitro polymerase extension assays, carried out at 72° C., using the high-fidelity DNA polymerase PfuTurbo. (D) Bypass efficiency (CRAB assay) of KP1212, m3C, C in HK81 (AlkB^+) and HK82 (AlkB^−) E. coli cells. m3C and undamaged C were used as controls. Genomes were made and normalized to one another before being combined with a competitor genome. Each mixture was transformed into the corresponding cell strain in triplicate, and bypass efficiency was calculated by using the undamaged C genome as 100% bypass, with error bars representing one standard deviation. (E) Mutagenesis (REAP assay) of KP1212, m3C, and C in HK82 (AlkB^−) E. coli cells. m3C, undamaged C, and an approximately equimolar mixture of genomes carrying unmodified G/A/T/C bases at the site of inquiry (denoted as GATC) were used as controls. Genomes containing the lesions of interest were transfected into E. coli in triplicate.
All E. coli strains used in this work contain the F′ episome, which enables infection by M13 phage. GW5100 strain was used for large scale preparation of M13 phage DNA, SCS 110 (JM110, end Al) was used for amplification of progeny phage post-electroporation, and NR9050 was the strain of choice for double agar plating with X-GAL for blue-clear detection of plaques. The E. coli strains used to replicate lesion-containing phage were HK81 (as AB1157, but nalA) and HK82 (as AB1157, but nalA alkB22; AlkB-deficient).

A short description of data set [2]: Variable temperature 1H NMR, tautomerism in DMF-d7. It counts as physicochemical. To be noted: for tautomerism by Variable Temperature NMR: DMF-d7, 20 to −60° C. The protocol: At 20° C., exchangeable protons on the base moiety are observed at 7.58 ppm and 4.14 ppm (FIG. 10). At −60° C., exchangeable protons on the base moiety are observed at 8.70 ppm, 8.08 ppm, and 4.68 ppm (FIG. 11). Protons with a chemical shift of 8.70, 8.08, and 7.58 ppm likely correspond to enolic, amido, or imino protons, while protons with a chemical shift of 4.68 and 4.14 ppm likely correspond to amino protons. The expected chemical shifts for enolic, amido, and imino protons are relatively close, and thus these species cannot be assigned at this stage. […] Only the existence of multiple tautomeric species would explain the presence of three exchangeable protons resonances. […] Based on their chemical structures, the keto-amino tautomer will pair with guanine and the keto-imino/enol-imino tautomers can pair with adenine.
All NMR experiments were performed on Varian 500 MHz NMR spectrometers. The deuterated solvent DMF-d7 was from Cambridge Isotope Laboratories, Andover, Mass., USA. 5-Aza-5,6-dihydro-2′-deoxycytidine (KP1212) nucleoside was from Berry & Associates Inc., Dexter, Mich., USA. The NMR sample was prepared by dissolving 10 mg of KP1212 nucleoside in 1.0 ml DMF-d7 (final concentration ˜44 mM). ^1H NMR spectra were reported in parts per million (ppm) and were referenced to the signals for DMF-d7 (8.03 ppm). ^13C NMR spectra were referenced to the signals for DMF-d7 (163.15 ppm).
FIG. 14A depicts the structures of all five possible tautomers (1 to 5) of KP1212, among which the three active protons on the nucleobase shift among the 02, N3, N4 and N5 positions. […] Before assigning the three active protons on the nucleobase moiety, all non-exchangeable protons in KP1212 and the two hydroxyl protons on the 3′ and 5′ positions were identified by carrying out 1D (^1H and ^13C) and 2D (COSY, HSQC, and HMBC) NMR experiments. The NMR signals of the three active protons in the base portion of KP1212 were studied at different temperatures. […] When the temperature was decreased to −50° C., the three broad peaks resolved into six distinct proton resonances (FIG. 14B, denoted as peaks i-vi), which could be assigned to imino (designated as e and n in FIGS. 14A to 14C), amido (designated as g and m), enolic (designated as c and d) or amino (designated as a, b, f, h, i, j, k, l, and o) protons.
At −50° C. six distinct proton resonances (FIG. 14B, i to vi) were observed, attributable to protons bound either to nitrogen or to oxygen atom (for only the base portion of the KP1212 molecule). Integration of the six broad peaks permitted estimation of the relative ratios of the five tautomeric species that exist in solution (FIG. 14A).
The NMR data also allowed the determination of the relative ratios of the tautomeric species present in the DMF solution at −50° C. (FIGS. 14B and 14C). Several peaks in the NMR spectrum partially overlapped (e.g., iv and v), so the raw data were reconstructed using a least squares fit algorithm (FIG. 16). The reconstructed peaks from the simulation were integrated, yielding an estimate of the relative amounts of each of the proton resonances in the spectrum. […] 2) Based on the peak assignments from part 1), a system of linear equations was set up using the relative amounts of tautomers as unknown variables (FIG. 14D). Each NMR peak provided a linear equation whereby the peak area should be equal to the sum of all tautomers (as relative amounts) containing protons that contribute to that peak. The solutions of these equations yielded the relative ratios of the tautomeric species present in DMF at −50° C. (FIG. 14D).

Setting [3] is: −50° C. in DMF, deconvoluted from NMR spectrum.

For the molecule `NC1=NC(=O)N([C@H]2C[C@H](O)[C@@H](CO)O2)CN1` [KP1212, 5-aza-5,6-dihydro-2′-deoxycytidine], the “Polymerase bypass efficiency, Avg.” value in data set [1] is reported as 128%. For the same molecule, in data set [2], the “tautomerism by Variable Temperature NMR” value is “shows multiple tautomerism; also recorded: different tautomeric forms”. Moreover, in data set [2] (setting [3]), the “relative proportion of enol tautomer 1” value amounted to 51%, the “relative proportion of enol tautomer 2” value is recorded as 38% and the “relative proportion of keto tautomers 3 to 5 collectively” value stood at 11%.
For the molecule `Nc1ccn([C@H]2C[C@H](O)[C@@H](CO)O2)c(=O)n1` [dC, deoxycytidine], the “Polymerase bypass efficiency, Avg.” value in data set [1] stood at 100%. Moreover, the “tautomerism by Variable Temperature NMR” value in data set [2] is recorded as “does not show multiple tautomerism; also recorded: single tautomerism”; in data set [2] (listed as deoxycytidine), “only one tautomeric form; also recorded: no imino or enol tautomer exists”.
